Blank lines part the entries; values can stand above or below the compound they belong to. Active and inactive are the calls of the source. The rule behind the calls is not given here.
Experiments:
[1] = Induction of adipogenesis in human AT-MSC assessed as adiponectin secretion at 30 uM in IDX medium incubated for 5 days by ELISA (reference value: 100 +/- 15 pg/ml); format: functional, Adipose tissue derived mesenchymal stem cell; settings: time 5 day
[2] = tested on: Adipose tissue derived mesenchymal stem cell; assay: Induction of adipogenesis in human AT-MSC cells assessed as increase in intracellular lipid accumulation at 30 uM in IDX medium incubated for 5 days by Oil Red O staining based inverted phase microscopy relative to IDX control; format: functional; settings: time 5.0 day
[3] = Induction of adipogenesis in human AT-MSC assessed as adiponectin secretion at 30 uM in IDX medium incubated for 5 days by ELISA relative to IDX control; format: functional, Adipose tissue derived mesenchymal stem cell; settings: time 5 day
[4] = Induction of adipogenesis in human AT-MSC assessed as adiponectin secretion in IDX medium incubated for 5 days by ELISA; format: functional; settings: adipose tissue derived mesenchymal stem cell
[5] = tested on: Adipose tissue derived mesenchymal stem cell; assay: Induction of adipogenesis in human AT-MSC cells assessed as increase in lipid droplet at 30 uM in IDX medium incubated for 5 days by Oil Red O staining based inverted phase microscopy relative to IDX control; format: functional; settings: time 5.0 day
[6] = target: T1, PPAR alpha/gamma (Homo sapiens) (UniProt P37231+Q07869); assay: Agonist activity at PPARalpha/PPARgamma in human AT-MSC cells assessed as upregulation of SCD1 mRNA at 10 uM incubated for 3 days by qRT-PCR analysis; format: cell-based; settings: Adipose tissue derived mesenchymal stem cell, filed as agonist, time 3.0 day
[7] = target: T2, Peroxisome proliferator-activated receptor alpha (Homo sapiens) (UniProt Q07869); assay: (§1) Binding affinity to human recombinant PPARalpha by Cheng-Prusoff equation based competitive binding TR-FRET assay; settings: filed as agonist
T2 sequence (whole entry): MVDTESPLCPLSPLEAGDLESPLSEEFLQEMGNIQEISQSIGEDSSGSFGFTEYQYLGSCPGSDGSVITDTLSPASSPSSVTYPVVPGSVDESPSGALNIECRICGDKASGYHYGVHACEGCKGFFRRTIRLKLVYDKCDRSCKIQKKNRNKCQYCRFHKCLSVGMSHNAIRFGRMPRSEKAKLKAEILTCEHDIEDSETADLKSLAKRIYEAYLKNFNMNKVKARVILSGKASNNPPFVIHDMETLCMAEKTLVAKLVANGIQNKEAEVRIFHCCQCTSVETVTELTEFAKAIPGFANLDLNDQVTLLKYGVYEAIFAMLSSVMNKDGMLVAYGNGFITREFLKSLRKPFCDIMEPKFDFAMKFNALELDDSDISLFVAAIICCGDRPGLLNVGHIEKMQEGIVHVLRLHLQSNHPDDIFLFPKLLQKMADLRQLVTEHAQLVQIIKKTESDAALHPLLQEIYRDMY

[8] = target: T3, Peroxisome proliferator-activated receptor alpha (Homo sapiens, UniProt Q07869); assay: as §1
T3 sequence (Q07869 whole entry): T2 sequence (whole entry)

[9] = target: T1, PPAR alpha/gamma (Homo sapiens); assay: Agonist activity at PPARalpha/PPARgamma in human AT-MSC cells assessed as upregulation of FASN mRNA at 10 uM incubated for 3 days by qRT-PCR analysis; format: cell-based; settings: Adipose tissue derived mesenchymal stem cell, time 3.0 day
[10] = target: T1, PPAR alpha/gamma (Homo sapiens); assay: Agonist activity at PPARalpha/PPARgamma in human NHEK cells assessed as upregulation of FADS1 mRNA at 10 uM incubated for 3 days by qRT-PCR analysis; format: cell-based; settings: filed as agonist, time 3.0 day
NHEK [11] = assay: Inhibition of UVB-induced MMP1 level in human NHEK cells at 10 uM incubated for 24 hrs by ELISA; format: functional, cell-based
[12] = target: T1, PPAR alpha/gamma (Homo sapiens); assay: Agonist activity at PPARalpha/PPARgamma in human NHEK cells assessed as upregulation of HMGCR mRNA at 10 uM incubated for 3 days by qRT-PCR analysis; format: cell-based; settings: time 3.0 day
[13] = target: T1, PPAR alpha/gamma (Homo sapiens); assay: Agonist activity at PPARalpha/PPARgamma in human NHEK cells assessed as upregulation of SCD1 mRNA at 10 uM incubated for 3 days by qRT-PCR analysis; format: cell-based; settings: filed as agonist, time 3.0 day
[14] = target: T1, PPAR alpha/gamma (Homo sapiens); assay: Agonist activity at PPARalpha/PPARgamma in human NHEK cells assessed as upregulation of ACACB mRNA at 10 uM incubated for 3 days by qRT-PCR analysis; format: cell-based; settings: time 3.0 day
[15] = target: T4, Peroxisome proliferator-activated receptor gamma (Homo sapiens, UniProt P37231); assay: (§2) Binding affinity to human recombinant PPARgamma by Cheng-Prusoff equation based competitive binding TR-FRET assay
T4 sequence (P37231 whole entry): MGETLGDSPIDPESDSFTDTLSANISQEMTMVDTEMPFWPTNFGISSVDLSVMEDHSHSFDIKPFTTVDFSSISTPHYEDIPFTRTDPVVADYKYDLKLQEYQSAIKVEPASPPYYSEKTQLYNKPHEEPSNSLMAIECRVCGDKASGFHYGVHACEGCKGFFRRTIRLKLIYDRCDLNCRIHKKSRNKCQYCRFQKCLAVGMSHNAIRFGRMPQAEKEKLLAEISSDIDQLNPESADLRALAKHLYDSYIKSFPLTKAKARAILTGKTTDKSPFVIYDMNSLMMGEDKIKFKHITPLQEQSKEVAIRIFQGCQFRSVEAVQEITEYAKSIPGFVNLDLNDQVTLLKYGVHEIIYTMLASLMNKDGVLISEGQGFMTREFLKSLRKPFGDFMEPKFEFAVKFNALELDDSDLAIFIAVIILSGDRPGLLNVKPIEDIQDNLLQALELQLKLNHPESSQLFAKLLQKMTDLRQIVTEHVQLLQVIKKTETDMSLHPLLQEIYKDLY

[16] = target: T5, Peroxisome proliferator-activated receptor gamma (Homo sapiens) (UniProt P37231); assay: as §2; settings: filed as agonist
T5 sequence (whole entry): T4 sequence (P37231 whole entry)

[17] = target: T1, PPAR alpha/gamma (Homo sapiens); assay: Agonist activity at PPARalpha/PPARgamma in human AT-MSC cells assessed as upregulation of FABP4 mRNA at 10 uM incubated for 3 days by qRT-PCR analysis; format: cell-based; settings: Adipose tissue derived mesenchymal stem cell, filed as agonist, time 3.0 day
NHEK [18] = assay: Inhibition of UVB-induced PTGS2 mRNA in human NHEK cells at 10 uM incubated for 24 hrs by qRT-PCR analysis; format: functional, cell-based
[19] = target: T1, PPAR alpha/gamma (Homo sapiens); assay: Agonist activity at PPARalpha/PPARgamma in human NHEK cells assessed as upregulation of FASN mRNA at 10 uM incubated for 3 days by qRT-PCR analysis; format: cell-based; settings: time 3.0 day
[20] = target: T1, PPAR alpha/gamma (Homo sapiens); assay: Agonist activity at PPARalpha/PPARgamma in human NHEK cells assessed as upregulation of FADS2 mRNA at 10 uM incubated for 3 days by qRT-PCR analysis; format: cell-based; settings: filed as agonist, time 3.0 day
[21] = target: T1, PPAR alpha/gamma (Homo sapiens); assay: Agonist activity at PPARalpha/PPARgamma in human AT-MSC cells assessed as upregulation of FADS2 mRNA at 10 uM incubated for 3 days by qRT-PCR analysis; format: cell-based; settings: Adipose tissue derived mesenchymal stem cell, filed as agonist, time 3.0 day
NHEK [22] = assay: Inhibition of UVB-induced MMP1 mRNA in human NHEK cells at 10 uM incubated for 24 hrs by qRT-PCR analysis; format: functional, cell-based
[23] = target: T1, PPAR alpha/gamma (Homo sapiens); assay: Agonist activity at PPARalpha/PPARgamma in human NHEK cells assessed as upregulation of HMGCS2 mRNA at 10 uM incubated for 3 days by qRT-PCR analysis; format: cell-based; settings: filed as agonist, time 3.0 day
NHEK [24] = assay: Inhibition of UVB-induced PGE2 level in human NHEK cells at 10 uM incubated for 24 hrs by ELISA; format: functional, cell-based
[25] = target: T1, PPAR alpha/gamma (Homo sapiens); assay: Agonist activity at PPARalpha/PPARgamma in human AT-MSC cells assessed as upregulation of adiponectin mRNA at 10 uM incubated for 3 days by qRT-PCR analysis; format: cell-based; settings: Adipose tissue derived mesenchymal stem cell, filed as agonist, time 3.0 day
[26] = target: T1, PPAR alpha/gamma (Homo sapiens); assay: Agonist activity at PPARalpha/PPARgamma in human AT-MSC cells assessed as upregulation of ACACB mRNA at 10 uM incubated for 3 days by qRT-PCR analysis; format: cell-based; settings: Adipose tissue derived mesenchymal stem cell, time 3.0 day
[27] = target: T1, PPAR alpha/gamma (Homo sapiens); assay: Agonist activity at PPARalpha/PPARgamma in human AT-MSC cells assessed as upregulation of HMGCS2 mRNA at 10 uM incubated for 3 days by qRT-PCR analysis; format: cell-based; settings: Adipose tissue derived mesenchymal stem cell, filed as agonist, time 3.0 day
[28] = target: T1, PPAR alpha/gamma (Homo sapiens); assay: Agonist activity at PPARalpha/PPARgamma in human AT-MSC cells assessed as upregulation of HMGCR mRNA at 10 uM incubated for 3 days by qRT-PCR analysis; format: cell-based; settings: Adipose tissue derived mesenchymal stem cell, filed as agonist, time 3.0 day
NHEK [29] = assay: Inhibition of UVB-induced MMP1 level in human NHEK cells at 1 uM incubated for 24 hrs by ELISA; format: functional, cell-based
NHEK [30] = assay: Inhibition of UVB-induced PGE2 level in human NHEK cells at 1 uM incubated for 24 hrs by ELISA; format: functional, cell-based
NHEK [31] = assay: Inhibition of UVB-induced MMP1 mRNA in human NHEK cells at 1 uM incubated for 24 hrs by qRT-PCR analysis; format: functional, cell-based
NHEK [32] = assay: Inhibition of UVB-induced PTGS2 mRNA in human NHEK cells at 1 uM incubated for 24 hrs by qRT-PCR analysis; format: functional, cell-based
[33] = Induction of adipogenesis in human AT-MSC assessed as adiponectin secretion at 300 uM in IDX medium incubated for 5 days by ELISA (reference value: 100 +/- 15 pg/ml); format: functional, Adipose tissue derived mesenchymal stem cell; settings: time 5 day

Structure (SMILES): COc1cc(/C=C/C(=O)OCc2cc(=O)c(O)co2)cc(OC)c1OC
Activity [1]: 137 pg/mL

Structure (SMILES): COc1ccc(/C=C/C(=O)OCc2cc(=O)c(O)co2)c(OC)c1OC
Activity [1]: 137 pg/mL

Structure (SMILES): COc1cc(OC)c(/C=C/C(=O)OCc2cc(=O)c(O)co2)c(OC)c1
Activity [1]: 87 pg/mL

Structure (SMILES): COc1ccccc1/C=C/C(=O)OCc1cc(=O)c(O)co1
Activity [2]: Active | Activity [1]: 221 pg/mL | fold change (FC) [3]: 2.21 | EC50 [4]: 20.6 µM | Activity [5]: Active

Structure (SMILES): COc1cccc(/C=C/C(=O)OCc2cc(=O)c(O)co2)c1OC
Activity [6]: Active | Activity [7]: Dose-dependent effect | Ki [8]: 8 µM | Activity ([9]; filed as agonist): Active | Activity [10]: Active | inhibition (NHEK [11]): Active | Activity [12]: inactive | Activity [2]: Active | Activity [13]: Active | Activity [1]: 281 pg/mL | Activity [14]: inactive | Ki [15]: 6.7 µM | Activity [16]: Dose-dependent effect | Activity [17]: Active | inhibition (NHEK [18]): Active | fold change (FC) [3]: 2.81 | Activity [19]: inactive | EC50 [4]: 14.8 µM | Activity [5]: Active | Activity [20]: Active | Activity [21]: Active | inhibition (NHEK [22]): Active | Activity [23]: Active | inhibition (NHEK [24]): Active | Activity [25]: Active | Activity ([26]; filed as agonist): Active | Activity [27]: Active | Activity [28]: Active

Activity [6]: Active | Activity [9]: inactive | Activity [12]: inactive | Activity [14]: inactive | Activity [17]: Active | Activity [19]: inactive | Activity [21]: Active | Activity [25]: Active | Activity [26]: inactive | fold change (FC) [27]: 4.53 | Activity [28]: Active
Structure (SMILES): Cc1cccc(Nc2cc(Cl)nc(SCC(=O)O)n2)c1C
inhibition (NHEK [11]): Active | inhibition (NHEK [18]): Active | inhibition (NHEK [22]): Active | inhibition (NHEK [24]): Active

Structure (SMILES): COc1cc(OC)c(OC)cc1/C=C/C(=O)OCc1cc(=O)c(O)co1
Activity [1]: 103 pg/mL

Structure (SMILES): COc1ccc(/C=C/C(=O)OCc2cc(=O)c(O)co2)cc1
Activity [1]: 138 pg/mL

Structure (SMILES): COc1ccc(/C=C/C(=O)OCc2cc(=O)c(O)co2)cc1OC
Activity [1]: 120 pg/mL

Structure (SMILES): O=C(/C=C/c1ccc2c(c1)OCO2)OCc1cc(=O)c(O)co1
Activity [1]: 164 pg/mL

EC50 [4]: 0.86 µM
Structure (SMILES): Cc1c(C)c2c(c(C)c1O)CCC(C)(COc1ccc(CC3SC(=O)NC3=O)cc1)O2 (configuration not stated) [TROGLITAZONE]
inhibition (NHEK [29]): Active | inhibition (NHEK [30]): inactive | inhibition (NHEK [31]): Active | inhibition (NHEK [32]): inactive

Structure (SMILES): CC(=O)Oc1ccccc1C(=O)O [ASPIRIN]
Activity [33]: 197 pg/mL

Structure (SMILES): COc1cccc(/C=C/C(=O)OCc2cc(=O)c(O)co2)c1
Activity [2]: Active | Activity [1]: 265 pg/mL | fold change (FC) [3]: 2.65 | EC50 [4]: 36.6 µM | Activity [5]: Active

Structure (SMILES): COc1cc(/C=C/C(=O)OCc2cc(=O)c(O)co2)cc(OC)c1
Activity [1]: 67 pg/mL

From ChEMBL document CHEMBL4673218, “Kojyl cinnamate esters are peroxisome proliferator-activated receptor α/γ dual agonists” (Bioorg Med Chem, 2018)
